Each block holds one compound with its values, some of them ahead of it.
Columns and labels:
[1] = tested on: Salmonella typhimurium TA98; test: Ames reverse mutation test, TA98
Protocol: (§1) For each strain, treatment with a single concentration of 200 μg/plate was performed in triplicate and mutation was checked.

[2] = molecular target: AMP-activated protein kinase (AMPK); test: AMPK kinase assay (luminescence, purified enzyme, ATP, substrate peptide); format: biochemical; settings: AMPK activation
Protocol: In order to identify an effect of the Preparation Example 6 having the highest docking score in Experimental Example 1 on activity of the AMP-activated protein kinase (AMPK), a kinase assay was performed. The kinase assay was performed as follows. […] Then, purified AMP-activated protein kinase and ATP were allowed to react on a substrate peptide for the AMP-activated protein kinase, and degrees of luminescence thereof were shown as EC50 in Table 3 and FIG. 3.

Half-life test = test: Half-life test
Description: In order to identify whether the Preparation Example 6 according to the present invention can be orally administered, a half-life of the compound was checked. […] The results are illustrated in FIG. 18.

[3] = tested on: Salmonella typhimurium TA100
Protocol: as §1

[4] = tested on: amyloid-beta peptide1-42 degenerative neurological disease-induced mice; test: Morris water maze test; format: in vivo, ICR mice; settings: donepezil group
Description: Six-week-old ICR mice (male) were purchased, and then examined for general health for 6 days while subjecting them to quarantine and acclimation under an environment of animal breeding room. Then, healthy individuals were selected and used for the experiment. Identification of each individual was made by marking the number of each individual on the tail using a permanent marker, and identification of a breeding box was made by attaching an individual identification card on which test number, test substance name, test item, date of acquisition, acclimation period, date of grouping, test period, sex/animal number, and person in charge are indicated.
(§2) In order to induce a degenerative neurological disease, the experimental animals of Preparatory Example 1 were anesthetized by inhalation with 2.5% isoflurane. Then, 1 μg of amyloid-beta peptide1-42, a degenerative neurological disease-inducing substance, was administered to the animals at both hippocampal positions (AP: −2.3, L: ±2.0, H: −1.5) using a stereotaxic apparatus. […] For the administration, 1 μl was injected, at a flow rate of 0.2 μl/min, with a […] gas-tight glass syringe (Hamilton, Reno, NV, USA) using a perfusion pump (Pump 22, Harvard Apparatus, South Natick, MA, USA). Subsequently, the syringe was allowed to stand for 5 minutes and then removed.
(§3) Then, a degenerative neurological disease was induced as in Preparation Example 2.
After induction of the degenerative neurological disease, the following test was conducted after a one-day recovery period passed.
(§4) A circular pool (diameter: 120 cm, height: 75 cm) was filled with water to a depth of 25±1 cm as in FIG. 4, and a 24 cm platform was prepared by hiding it 1 cm below the water surface. Space cues were installed on the four sides of the wall so that the aminals can identify locations, and skimmed milk powder was dissolved into water so that the animals cannot identify the platform with naked eyes. One day before the experiment, all the experimental animals were allowed to swim freely for 1 minute in a water bath having no platform, so that the animals can adapt to the swimming situation. After that, a test group was allowed to start, in any order, from two of the three quadrants except the quadrant where the platform was placed, and allowed to find the platform for 60 seconds. In a case where an animal finds the platform, the animal was allowed to stay thereon for 20 seconds. […] As soon as end of the position learning time, which is the 20-second staying time, the animal was allowed to start again from any quadrant, and the time and distance to reach the platform were measured. The procedure was performed four times a day, and all procedures were taken with a camera and analyzed with a video tracking system (Panlab, USA). Probe trials were made on the fifth day after the four-day experiment in toal was completed. The test group was allowed to swim freely for 90 seconds without the platform, thereby performing evaluation on whether the test group holds a memory of the platform location. The results are illustrated in FIGS. 5 to 7.

[5] = tested on: amyloid-beta peptide1-42 degenerative neurological disease-induced mice; test: Probe test (Morris water maze, platform removed); format: in vivo, ICR mice; settings: donepezil group, 90 seconds without platform, p<0.01 vs beta-amyloid group
Protocol: as §2, §3, §4
The results are illustrated in FIGS. 8 and 9.

Structure (SMILES): O=[N+]([O-])c1ccc2c(c1)Cc1ccccc1-2 [2-Nitrofluorene, 2-nitrofluorene, reference compound]
- Reverse mutation [factor] w/o S-9 mix ([1]; TA98, without S-9, factor versus control): 915.0]
- Reverse mutation/dish (mean ± SD) w/o S-9 mix ([1]; TA98, without S-9, Preparation Example 6 at 200 μg/plate, 2-Nitrofluorene concentration 2): 290 ± 8

Structure (SMILES): NC(=O)c1ncn([C@@H]2O[C@H](CO)[C@@H](O)[C@H]2O)c1N [AICAR, reference compound]
- EC50 [2]: 299 nM

- half-life (Half-life test): 8 to 10 min
Structure (SMILES): Oc1ccc(C=Cc2cc(O)cc(O)c2)cc1 [Resveratrol, reference compound]

Structure (SMILES): [N-]=[N+]=[N-] [Sodium azide, sodium azide, reference compound]
- Reverse mutation [factor] w/o S-9 mix ([3]; TA100, without S-9, factor versus control): [5.5]
- Reverse mutation/dish (mean ± SD) w/o S-9 mix ([3]; TA100, without S-9, Preparation Example 6 at 200 μg/plate, Sodium azide concentration 1): 618 ± 13

Structure (SMILES): COc1cc2c(cc1OC)C(=O)C(CC1CCN(Cc3ccccc3)CC1)C2 (stereo not drawn) [donepezil, reference compound]
- maximum time to find the platform (escape latency) [4]: 111.99 (±22.59) seconds
- minimum time to find the platform (escape latency) [4]: 30.82 (±13.96) seconds
- swimming time in the target quadrant [5]: 39.04 (±8.68) seconds
